Test results published in US8143212B2 (Vicuron Pharmaceuticals Inc., priority 2002, dated 2012).
Converted amounts (≈) assume the structure as drawn. Where two headings read alike, the source gives them in different places.

Columns and labels:
[1] = test system: E coli; experiment: MIC, microbiological activity (Table 3); assay type: cell-based
[2] = test system: C albicans; experiment: MIC, microbiological activity (Table 3); assay type: cell-based; details: L 145 C albicans SKF2270; read-out: MIC
[3] = clinical; details: human, in vivo; for AUC(0-inf): AUC0-inf; for clearance: CL; for Vd: Vss
Procedure: (§1) The peak concentrations (Cmax) were obtained directly from the observed data. The area under the plasma concentration-time curve (AUC) were calculated using the linear trapezoidal rule.
(§2) Clinical Study VER001-13 examined subjects with mild and moderate renal impairment and Clinical Study VER001-1 examined subjects with severe renal impairment and subjects with end-stage renal disease (ESRD). Matched control subjects were enrolled in all studies. […] Subjects with ESRD were dependent on dialysis through the course of the study (3 times weekly).

[4] = human, in vivo
Procedure: as §1, §2

[5] = test system: S aureus; experiment: MIC, microbiological activity (Tables 2, 3); assay type: cell-based

**Q.** With `CN[C@H]1C(=O)N[C@@H]2Cc3ccc(cc3)Oc3cc4cc(c3O[C@@H]3O[C@H](C(=O)O)[C@@H](O)[C@H](O)[C@H]3NC(=O)CCCCCCCCC(C)C)Oc3ccc(cc3Cl)[C@@H](O)[C@@H]3NC(=O)[C@H](NC(=O)[C@@H]4NC(=O)[C@@H](NC2=O)c2cc(cc(O)c2Cl)Oc2cc1ccc2O)c1ccc(O)c(c1)-c1c(O[C@H]2O[C@H](CO)[C@@H](O)[C@H](O)[C@@H]2O)cc(O)cc1[C@@H](C(=O)NCCCN(C)C)NC3=O` [Dalbavancin] as the compound, how does the MIC ([1]; G 16440 E coli iperperm) read?
**A.** 8 µg/mL (≈ 4.4 µM)

**Q.** What about the MIC ([1]; L 47 E coli SKF12140, read-out: MIC) of the same compound?
**A.** > 32 µg/mL

**Q.** And the MIC [2]?
**A.** > 32 µg/mL

**Q.** What about the AUC ([3]; 500 mg, AUC) of the same compound?
**A.** 24400 µg·h/mL

**Q.** And the AUC ([3]; 500 mg, AUC0-day7)?
**A.** 6080 µg·h/mL

**Q.** And the AUC ([3]; 500 mg, AUC0-day14)?
**A.** 10400 µg·h/mL

**Q.** What about the AUC(0-inf) ([3]; 500 mg) of the same compound?
**A.** 24100 µg·h/mL

**Q.** What about the AUC ([3]; 500 mg, AUC7) of the same compound?
**A.** 6860 µg·h/mL

**Q.** What about the AUC ([3]; 500 mg, AUC14) of the same compound?
**A.** 11000 µg·h/mL

**Q.** And the clearance ([3]; 500 mg)?
**A.** 0.37 mL/min

**Q.** What about the Cmax ([3]; 500 mg) of the same compound?
**A.** 137 µg/mL

**Q.** What about the Vd ([3]; 500 mg) of the same compound?
**A.** 13.2 L

**Q.** What about the AUC ([3]; 1000 mg, AUC) of the same compound?
**A.** 24500 µg·h/mL

**Q.** And the AUC ([3]; 1000 mg, AUC0-day7)?
**A.** 9710 µg·h/mL

**Q.** And the AUC ([3]; 1000 mg, AUC0-day14)?
**A.** 15300 µg·h/mL

**Q.** What about the AUC(0-inf) ([3]; 1000 mg) of the same compound?
**A.** 27000 µg·h/mL

**Q.** And the AUC ([3]; 1000 mg, AUC7)?
**A.** 13400 µg·h/mL

**Q.** What about the AUC ([3]; 1000 mg, AUC 14) of the same compound?
**A.** ~22000 µg·h/mL

**Q.** And the AUC ([3]; 1000 mg, AUC14)?
**A.** 17700 µg·h/mL

**Q.** And the AUC ([3]; 1000 mg, AUC42)?
**A.** 23100 µg·h/mL

**Q.** And the clearance ([3]; 1000 mg)?
**A.** 0.627 mL/min

**Q.** What about the Cmax ([3]; 1000 mg) of the same compound?
**A.** 340 µg/mL

**Q.** What about the Vd ([3]; 1000 mg) of the same compound?
**A.** 16.5 L

**Q.** And the AUC ([3]; 1120 mg, AUC)?
**A.** 25800 µg·h/mL

**Q.** What about the AUC ([3]; 1120 mg, AUC0-day7) of the same compound?
**A.** 13600 µg·h/mL

**Q.** What about the AUC ([3]; 1120 mg, AUC0-day14) of the same compound?
**A.** 20200 µg·h/mL

**Q.** And the AUC(0-inf) ([3]; 1120 mg)?
**A.** 25800 µg·h/mL

**Q.** What about the AUC ([3]; 1120 mg, AUC7) of the same compound?
**A.** 13600 µg·h/mL

**Q.** And the AUC ([3]; 1120 mg, AUC14)?
**A.** 20200 µg·h/mL

**Q.** What about the clearance ([3]; 1120 mg) of the same compound?
**A.** 0.728 mL/min

**Q.** And the Cmax ([3]; 1120 mg)?
**A.** 325 µg/mL

**Q.** And the Vd ([3]; 1120 mg)?
**A.** 8.49 L

**Q.** What about the tolerability [4] of the same compound?
**A.** well tolerated

**Q.** What about the Cmax ([4]; 1120 mg) of the same compound?
**A.** 325 µg/mL

**Q.** And the MIC ([5]; 3817 S aureus clin. Isolate, read-out: MIC)?
**A.** < 0.03 µg/mL

**Q.** And the MIC ([5]; L 819 S aureus Smith 50% serum)?
**A.** 2 µg/mL (≈ 1.1 µM)

**Q.** And the MIC ([5]; L 819 S aureus Smith 50% serum, read-out: MIC)?
**A.** 1 µg/mL (≈ 0.55 µM)

**Q.** And the MIC ([5]; Staphylococcus aureus, MSSA, MSSA Staph. aureus Smith 819, read-out: MIC)?
**A.** 0.06 µg/mL (≈ 0.033 µM)
